“Also recorded” adds a separate entry of the source.
Columns and labels:
[1] = Daily home questionnaire of side effects, first 4 days after PDT; assay type: in vivo, human; details: for Pain Score Mean (0-10 visual-analog scale): average of 23 patients
Description: (§1) Several secondary endpoints were also measured. For pain assessment, patients were asked every 5 to 10 min during illumination to report their pain on a 0 to 10 visual-analog (VAS) scale. Erythema was recorded photographically at Day 1 and on Day 4 post PDT. A side effect profile was recorded by each patient in a daily home questionnaire to document the presence or absence of eleven different signs and symptoms in the 4 days immediately following PDT (see Table 2).

[2] = Erythema after PDT, recorded photographically; assay type: in vivo, human; details: 1-4 days after PDT; majority of patients
Description: as §1

[3] = test system: actinic keratoses (AK) lesions of face and scalp; assay: AK lesion clearance, bilaterally controlled randomized clinical trial of ALA blue light PDT

NCC(=O)CCC(=O)O [ALA, 5-aminolevulinic acid]
Swelling ([1]; Side A (test PDT), DAY 4): 0, 0 percentage of patients
Pain Score Mean (0-10 visual-analog scale) ([1]; Side A (test PDT), DAY 4): 1.0, 1.0
Bleeding ([1]; Side B (control PDT), DAY 1): 0, 0 percentage of patients
Blisters ([1]; Side B (control PDT), DAY 1): 13, 13 percentage of patients
Burning ([1]; Side B (control PDT), DAY 1): 65, 65 percentage of patients
Crusting ([1]; Side B (control PDT), DAY 1): 4 percentage of patients
Itching ([1]; Side B (control PDT), DAY 1): 43, 43 percentage of patients
Open sores ([1]; Side B (control PDT), DAY 1): 0, 0 percentage of patients
Peeling ([1]; Side B (control PDT), DAY 1): 0 percentage of patients
Redness ([1]; Side B (control PDT), DAY 1): 91, 91 percentage of patients
Stinging ([1]; Side B (control PDT), DAY 1): 65, 65 percentage of patients
Swelling ([1]; Side B (control PDT), DAY 1): 22 percentage of patients
Pain Score Mean (0-10 visual-analog scale) ([1]; Side B (control PDT), DAY 1): 2.9
Bleeding ([1]; Side B (control PDT), DAY 2): 0 percentage of patients
Blisters ([1]; Side B (control PDT), DAY 2): 9 percentage of patients
Burning ([1]; Side B (control PDT), DAY 2): 52, 52 percentage of patients
Crusting ([1]; Side B (control PDT), DAY 2): 17 percentage of patients
Itching ([1]; Side B (control PDT), DAY 2): 74, 74 percentage of patients
Open sores ([1]; Side B (control PDT), DAY 2): 9, 9 percentage of patients
Peeling ([1]; Side B (control PDT), DAY 2): 9 percentage of patients
Redness ([1]; Side B (control PDT), DAY 2): 100, 100 percentage of patients
Stinging ([1]; Side B (control PDT), DAY 2): 70, 70 percentage of patients
Swelling ([1]; Side B (control PDT), DAY 2): 26, 26 percentage of patients
Pain Score Mean (0-10 visual-analog scale) ([1]; Side B (control PDT), DAY 2): 2.4
Bleeding ([1]; Side B (control PDT), DAY 3): 4 percentage of patients
Blisters ([1]; Side B (control PDT), DAY 3): 13 percentage of patients
Burning ([1]; Side B (control PDT), DAY 3): 35, 35 percentage of patients
Crusting ([1]; Side B (control PDT), DAY 3): 26 percentage of patients
Itching ([1]; Side B (control PDT), DAY 3): 65 percentage of patients
Open sores ([1]; Side B (control PDT), DAY 3): 9, 9 percentage of patients
Peeling ([1]; Side B (control PDT), DAY 3): 26 percentage of patients
Redness ([1]; Side B (control PDT), DAY 3): 87 percentage of patients
Stinging ([1]; Side B (control PDT), DAY 3): 39, 39 percentage of patients
Swelling ([1]; Side B (control PDT), DAY 3): 13 percentage of patients
Pain Score Mean (0-10 visual-analog scale) ([1]; Side B (control PDT), DAY 3): 1.5
Bleeding ([1]; Side B (control PDT), DAY 4): 13 percentage of patients
Blisters ([1]; Side B (control PDT), DAY 4): 9 percentage of patients
Burning ([1]; Side B (control PDT), DAY 4): 26, 26 percentage of patients
Crusting ([1]; Side B (control PDT), DAY 4): 35, 35 percentage of patients
Itching ([1]; Side B (control PDT), DAY 4): 65, 65 percentage of patients
Open sores ([1]; Side B (control PDT), DAY 4): 4, 4 percentage of patients
Peeling ([1]; Side B (control PDT), DAY 4): 52 percentage of patients
Redness ([1]; Side B (control PDT), DAY 4): 74 percentage of patients
Stinging ([1]; Side B (control PDT), DAY 4): 35, 35 percentage of patients
Swelling ([1]; Side B (control PDT), DAY 4): 0, 0 percentage of patients
Pain Score Mean (0-10 visual-analog scale) ([1]; Side B (control PDT), DAY 4): 1.0, 1.0
Major inflammatory parameters, Side A versus Side B ([1]; first 4 days post-treatment): no noticeable differences
Spotty erythema (inflamed AK lesions), Side A versus Side B [2]: approximately equal on Side A and Side B
Clinical response, Difference (A − B) ([3]; Face, 30 min cohort): −1.7%
Clinical response (% reduction in AK counts at 3 months) ([3]; Face, 30 min cohort, Side A (test PDT, 30 min blue light)): 55.4%
Clinical response (% reduction in AK counts at 3 months) ([3]; Face, 30 min cohort, Side B (control PDT)): 57.1%
Clinical response, Difference (A − B) ([3]; Face, 45 min cohort): 1.1%
Clinical response (% reduction in AK counts at 3 months) ([3]; Face, 45 min cohort, Side A (test PDT, 45 min blue light)): 59.8%
Clinical response (% reduction in AK counts at 3 months) ([3]; Face, 45 min cohort, Side B (control PDT)): 58.6%
Clinical response, Difference (A − B) ([3]; Face, 60 min cohort): −3.8%
Clinical response (% reduction in AK counts at 3 months) ([3]; Face, 60 min cohort, Side A (test PDT, 60 min blue light)): 57.5%
Clinical response (% reduction in AK counts at 3 months) ([3]; Face, 60 min cohort, Side B (control PDT)): 61.2%
Clinical response, Difference (A − B) ([3]; Face, all patients): −1.4%
Clinical response (% reduction in AK counts at 3 months) ([3]; Face, all patients, Side A (test PDT, substantially no pre-illumination gap)): 57.7%
Clinical response (% reduction in AK counts at 3 months) ([3]; Face, all patients, Side B (control PDT, 1 hr pre-illumination gap, blue light 1000 sec)): 59.1%
Clinical response, Difference (A − B) ([3]; Scalp, 30 min cohort): −1.2%
Clinical response (% reduction in AK counts at 3 months) ([3]; Scalp, 30 min cohort, Side A (test PDT, 30 min blue light)): 44.8%
Clinical response (% reduction in AK counts at 3 months) ([3]; Scalp, 30 min cohort, Side B (control PDT)): 46.0%
Clinical response, Difference (A − B) ([3]; Scalp, 45 min cohort): 3%
Clinical response (% reduction in AK counts at 3 months) ([3]; Scalp, 45 min cohort, Side A (test PDT, 45 min blue light)): 41.2%
Clinical response (% reduction in AK counts at 3 months) ([3]; Scalp, 45 min cohort, Side B (control PDT)): 38.2%
Clinical response, Difference (A − B) ([3]; Scalp, 60 min cohort): 3.7%
Clinical response (% reduction in AK counts at 3 months) ([3]; Scalp, 60 min cohort, Side A (test PDT, 60 min blue light)): 45.2%
Clinical response (% reduction in AK counts at 3 months) ([3]; Scalp, 60 min cohort, Side B (control PDT)): 41.5%
Clinical response, Difference (A − B) ([3]; Scalp, all patients): 1.9%
Clinical response (% reduction in AK counts at 3 months) ([3]; Scalp, all patients, Side A (test PDT, substantially no pre-illumination gap)): 43.8%
Clinical response (% reduction in AK counts at 3 months) ([3]; Scalp, all patients, Side B (control PDT, 1 hr pre-illumination gap, blue light 1000 sec)): 41.9%
Clinical efficacy (lesion clearance), test PDT versus control PDT ([3]; face and scalp, 3 months, test of non-inferiority): nearly identical on both sides of the face and scalp; also recorded: statistically indistinguishable
